This is an account of results in patent US20250090498A1, “TREATMENT OF PRIMARY CTLA-4 CHECKPOINT RELATED IMMUNODEFICIENCIES” (ADIENNE PHARMA & BIOTECH SA, priority 2023, published 2025).

Entries after “also recorded” stand apart in the source; their conditions may differ. Read-outs that look alike come from different tables or passages of the source.

The target in data set [1] is T1, AhR (Homo sapiens, UniProt P35869).
T1 sequence (P35869 11-848): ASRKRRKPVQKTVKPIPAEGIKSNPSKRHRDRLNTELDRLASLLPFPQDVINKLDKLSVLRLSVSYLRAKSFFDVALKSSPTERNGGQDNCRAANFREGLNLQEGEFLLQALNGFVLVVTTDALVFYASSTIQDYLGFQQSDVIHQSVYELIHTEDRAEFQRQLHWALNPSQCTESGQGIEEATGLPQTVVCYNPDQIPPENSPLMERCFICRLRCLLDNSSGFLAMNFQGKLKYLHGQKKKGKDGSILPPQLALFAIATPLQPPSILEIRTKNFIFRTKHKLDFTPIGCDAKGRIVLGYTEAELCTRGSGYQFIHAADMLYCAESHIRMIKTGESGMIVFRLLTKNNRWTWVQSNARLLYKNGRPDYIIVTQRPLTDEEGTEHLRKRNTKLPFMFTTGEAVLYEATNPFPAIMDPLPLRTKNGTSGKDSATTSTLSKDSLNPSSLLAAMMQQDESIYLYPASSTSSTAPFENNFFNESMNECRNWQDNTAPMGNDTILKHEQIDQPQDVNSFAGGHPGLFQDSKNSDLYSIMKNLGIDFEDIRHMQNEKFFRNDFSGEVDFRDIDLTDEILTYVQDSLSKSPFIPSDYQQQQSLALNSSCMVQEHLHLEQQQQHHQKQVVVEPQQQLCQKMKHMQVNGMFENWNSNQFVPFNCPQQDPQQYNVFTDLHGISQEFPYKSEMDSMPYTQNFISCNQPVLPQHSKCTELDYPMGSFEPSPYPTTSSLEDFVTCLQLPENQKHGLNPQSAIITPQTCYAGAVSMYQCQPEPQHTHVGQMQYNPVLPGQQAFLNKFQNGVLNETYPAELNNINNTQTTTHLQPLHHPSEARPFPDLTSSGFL
As to the kind of experiment: AhR-dependent genes in vitro in cell lines (data not shown). The data set is classed as cell-based. More on the design: host or cells: unnamed cell lines. The settings on record: preliminary. As to the method:
Specifically, the oxidated form of 3-IAld (indole-3-formic acid), and methylated forms of indole-3-formic acid, were detected following administration of labelled 3-IAld. For example, 1-Methylindole-3-carboxylic acid was detected with the same kinetics of indole-3-formic acid, with peak levels at 30 min (FIGS. 13C and 13D). Few studies have been performed assessing the biological activities of methylindoles and methoxyindoles as aryl hydrocarbon receptor (AhR) activators.

For data set [2], the system named is immune-mediated colitis. As to the kind of experiment: immune-mediated colitis in Rag1−/− mice infused with CD4+ T cells and treated with anti-CTLA-4 mAb. The data set is classed as in vivo. How it is done:
Immunodeficient Rag1^−/− mice reconstituted with naïve CD4^+ T cells and treated with anti-CTLA-4 monoclonal antibody. Rag1−/− mice, mice homozygous for the RagltmlMom mutation produce no mature T cells or B cells. Their phenotype can be described as a “non-leaky” immune deficiency. Rag1−/− 8-10 weeks old mice were injected intraperitoneally with 4×10^5 naïve CD4^+ T cells purified from spleens of C57BL/6 mice and treated with anti-CTLA-4 mAb or control IgG the day after T-cell reconstitution and then at days 0, 4, 8, 12, and 16. […] Mice were monitored daily for overall mortality and body weight loss and sacrificed on day 21.

Data set [3] relates to disease progression in IL-10-deficient mice. As to the kind of experiment: disease progression in 16 wk-old IL-10-deficient mice, 3-IAld for 4 weeks then 1% DSS. It is filed as in vivo, Il10−/− mice. The settings on record: 3-IAld every other day for 4 weeks. As to the method:
Sixteen week-old IL-10-deficient mice (Il10^−/−) were treated with 3-IAld every other day for 4 weeks, as illustrated in FIG. 10A. As a mimic of disease exacerbation, mice received 1% DSS after 3-IAld treatment and subsequently evaluated for weight change, intestinal pathology and epithelial integrity.

Data set [4] relates to AhR. The settings on record: cited from earlier work.
For data set [5] the following is noted: enteric microparticles; cited from earlier work.
Another data set relates to DSS-induced colitis. As to conditions: cited from earlier work.
The conditions of data set [6]: cited from earlier work.
In data set [7] the test system is colitis, gastrointestinal and vaginal candidiasis. As to conditions: mouse, in vivo; cited from earlier work.
Data set [8] has as its system graft-versus-host disease (GvHD). As to conditions: mouse, in vivo; cited from earlier work.
In data set [9] the test system is pathology after chronic treatment with anti-CTLA-4 monoclonal antibody. The data set is described as follows: chronic anti-CTLA-4 treatment in 16 wk-old Il10−/− mice, without DSS. The data set is classed as in vivo. From the text: Animals were monitored daily for body weight, disease activity index, clinical inspection, inflammatory pathology in the ileum and colon, epithelial barrier function and immunological parameters of inflammation. […] Consistent with the extensive T cells infiltration in different organs observed in CTLA-4 haploinsufficiency (Kuehn et al, 2014; Schubert et al, 2014; […] No lymphocytic infiltration or immunopathology were detected in organs, such as the spleens and kidneys (data not shown).

Data set [10] relates to DSS+anti-CTLA-4-induced colitis. As to the kind of experiment: DSS+anti-CTLA-4-induced colitis in 8-10 wk-old Il10−/− mice. It is filed as in vivo. As to the method:
Il10^−/− Mice received DSS (1%) in their drinking water and 100 μg anti-CTLA-4 monoclonal antibody intraperitoneally at days 0, 4 and 8 following the DSS administration. 3-IAld-Eudragit was given (18 mg/kg 3-IAld) intragastrically every other day throughout the experiment, starting 2 days before treatment. Animals were monitored daily for body weight and inflammatory pathology in the colon until 14 days after DSS administration.

The subject of data set [11] is immune-mediated colitis. As to the kind of experiment: immune-mediated colitis in NSG mice infused with hPBMCs and treated with anti-CTLA-4 mAb. It is filed as in vivo. How it is done: Humanized immunodeficient NSG mice were injected with human peripheral blood mononuclear cells from healthy donors and treated with anti-CTLA-4 monoclonal antibody. NOD.Cg-Prkdcscid Il2rgtm1Wjl/SzJ (NSG) mice, 8-10 weeks old, were injected intraperitoneally with human peripheral blood mononuclear cells (107) freshly isolated from healthy donors and treated intraperitoneally with 100 μg of anti-CTLA-4 mAb or human IgG as antibody control at days 0, 4, 8, 12 and 16.
3-IAld (18 mg/kg) was administered intragastrically every other day starting the day of cell infusion. Mice were monitored daily for overall mortality and body weight loss and sacrificed on day 21.

[12] abbreviates: 3-IAld 18 mg/kg intragastrically every other day, 21 days.
[13] abbreviates: 3-IAld-Eudragit 18 mg/kg, DSS 1%.

Turning to `Cn1cc(C(=O)O)c2ccccc21` [1-methylindole-3-carboxylic acid, 1-Methyl-1H-indole-3-carboxylic acid], the “activation of AhR-dependent genes” value at AhR [1] was “activated AhR-dependent genes in a dose-dependent manner”.
As to `O=Cc1c[nH]c2ccccc12` [3-IAld, 1H-indole-3-carbaldehyde], in the data set with immune-mediated colitis [2] (3-IAld 18 mg/kg), the “progression of immune-mediated colitis (overall)” value was “limits progression”. Further, the weight loss result with immune-mediated colitis [2] (setting [12]) was “reduced”. For the same compound, in the data set with immune-mediated colitis [2] (3-IAld 18 mg/kg, day 21), the colon histopathology result is given as “improved” and the gross pathology entry is recorded as “improved”. Further, in data set [3], the colon inflammatory histopathology result is “slow down”, the “disease progression (overall)” value is on record as “slows disease progression” and the “loss of body weight” value is “slow down”. Besides, in data set [3] (PAS and Ki-67), the “epithelial integrity and renewal” value is recorded as “maintain”. For the same compound, the “dose range inducing luciferase activity” value in the data set with AhR [4] (as printed in b215) was 0.1 to 100 mM. Further, in the data set on AhR [4] (as printed in b238), the “dose range inducing luciferase activity” value is 0.0001 to 0.1 mM. Also, the “inflammatory histopathology and barrier function” value in data set [5] is reported as “improved”. In addition, in the data set with DSS-induced colitis (intragastric administration, AhR-dependent manner), the IL-22 production result is “induced IL-22 production”. The “therapeutic efficacy in a murine model of dextran-induced colitis” value in the data set with DSS-induced colitis (mouse, in vivo) was “therapeutic efficacy”. Besides, in data set [6], the “acidity (based on its pKa)” value was “very weakly acidic” and the solubility in water result is reported as “slightly soluble”. In addition, the “barrier integrity and production of antimicrobial peptides” value in [7] is “enhanced”. In addition, in data set [8], the gut epithelial damage result is listed as “limited”, the inflammatory cytokine production result is “decreased” and the transepithelial bacterial translocation entry is reported as “reduced”. Also, the “cytotoxic effects / pathology induced by CTLA-4 blockade (overall)” value in data set [9] (3-IAld, chronic schedule) was “effective; also recorded: protects”. Further, the “CD3+ T cell (lymphocytic) infiltration” value in data set [9] (ileum, colon, lung and liver, anti-CD3 staining) is listed as “significantly reduced; also recorded: reduces lymphocytic infiltration”. Moreover, the “DSS+anti-CTLA-4-induced colitis (overall)” value in data set [10] (3-IAld) is recorded as “protects”. Further, the “loss of body weight” value in data set [10] (3-IAld-Eudragit 18 mg/kg intragastrically every other day, DSS 1%) is “prevented”. For the same compound, in data set [10] (setting [13]), the disease activity index result is on record as “decreased” and the “inflammatory pathology (colon)” value was “decreased”. Moreover, the “immune-mediated colitis (overall)” value with immune-mediated colitis [11] (3-IAld 18 mg/kg) was “protects mice from immune-mediated colitis”. Also, in the data set on immune-mediated colitis [11] (setting [12]), the survival result is reported as “increased” and the weight loss entry was “reduced”. Besides, in the data set with immune-mediated colitis [11] (3-IAld 18 mg/kg, colon, day 21), the histology score entry is listed as “improved” and the inflammatory histopathology entry is “improved”. In the data set on immune-mediated colitis [11] (3-IAld 18 mg/kg, day 21), the “barrier function (expression of ZO-1)” value is “restored” and the “inflammatory cytokine gene expression” value was “decreased”.
